# Measurements reported in patent publication US20090156646A1, “PYRIDYLPHENOL COMPOUND AND USE THEREOF” (TAKEDA PHARMACEUTICAL COMPANY LIMITED, priority 2005, published 2009).
# Where a name gives a salt, the structure may show the parent alone.
row,melting point,Compound
1,195 to 197 °C,"CCCC(CC(=O)Nc1cccc(-c2cc(-c3ccc(F)cc3O)nc(NC(=O)c3ccco3)c2C#N)c1)N(CC)CC (centres unmarked) (as salt: hydrochloride) [Example 317, N-[3-cyano-4-(3-{[3-(diethylamino)hexanoyl]amino}phenyl)-6-(4-fluoro-2-hydroxyphenyl)pyridin-2-yl]-2-furamide hydrochloride]"
2,205 to 210 °C,"CN1CCN(Cc2cccc(-c3cc(-c4ccc(F)cc4O)nc(NC(=O)c4ccco4)c3C#N)c2)CC1 (as salt: hydrochloride) [Example 333, N-(3-cyano-6-(4-fluoro-2-hydroxyphenyl)-4-{3-[(4-methylpiperazin-1-yl)methyl]phenyl}pyridin-2-yl)-2-furamide dihydrochloride]"
3,215 to 222 °C,"CCN1CCN(Cc2cccc(-c3cc(-c4ccc(F)cc4O)nc(NC(=O)c4ccco4)c3C#N)c2)CC1 (as salt: hydrochloride) [Example 334, N-[3-cyano-4-{3-[(4-ethylpiperazin-1-yl)methyl]phenyl}-6-(4-fluoro-2-hydroxyphenyl)pyridin-2-yl]-2-furamide dihydrochloride]"
4,225 to 226 °C,"N#Cc1c(-c2cccc(NC(=O)CCN)c2)cc(-c2ccccc2O)nc1NC(=O)c1ccccc1 (as salt: trifluoroacetate) [Example 31, N-[4-(3-(β-alanylamino)phenyl)-3-cyano-6-(2-hydroxyphenyl)pyridin-2-yl]benzamide trifluoroacetate]"
5,197 to 204 °C,"N#Cc1c(-c2cccc(NC(=O)CCN)c2)cc(-c2cc(Cl)ccc2O)nc1NC(=O)c1cccs1 (as salt: trifluoroacetate) [Example 46, N-{4-[3-(β-alanylamino)phenyl]-6-(5-chloro-2-hydroxyphenyl)-3-cyanopyridin-2-yl}thiophene-2-carboxamide trifluoroacetate]"
6,205 to 210 °C,"N#Cc1c(-c2cccc(NC(=O)CCN)c2)cc(-c2cc(Cl)ccc2O)nc1NC(=O)c1ccccc1 (as salt: trifluoroacetate) [Example 47, N-{4-[3-(β-alanylamino)phenyl]-6-(5-chloro-2-hydroxyphenyl)-3-cyanopyridin-2-yl}benzamide trifluoroacetate]"
7,164 to 170 °C,"COc1ccc(-c2cc(-c3cccc(NC(=O)CCN)c3)c(C#N)c(NC(=O)c3ccccc3)n2)c(O)c1 (as salt: trifluoroacetate) [Example 50, N-{4-[3-(β-alanylamino)phenyl]-3-cyano-6-(2-hydroxy-4-methoxyphenyl)pyridin-2-yl}benzamide trifluoroacetate]"
8,160 to 167 °C,"N#Cc1c(-c2cccc(NC(=O)CCN)c2)cc(-c2ccc(Cl)cc2O)nc1NC(=O)c1ccccc1 (as salt: trifluoroacetate) [Example 51, N-{4-[3-(β-alanylamino)phenyl]-6-(4-chloro-2-hydroxyphenyl)-3-cyanopyridin-2-yl}benzamide trifluoroacetate]"
9,160 to 167 °C,"COc1cccc(O)c1-c1cc(-c2cccc(NC(=O)CCN)c2)c(C#N)c(NC(=O)c2ccccc2)n1 (as salt: trifluoroacetate) [Example 52, N-{4-[3-(β-alanylamino)phenyl]-3-cyano-6-(2-hydroxy-6-methoxyphenyl)pyridin-2-yl}benzamide trifluoroacetate]"
10,206 to 209 °C,"N#Cc1c(-c2cccc(NC(=O)CCN)c2)cc(-c2ccc(Cl)cc2O)nc1NC(=O)c1cccs1 (as salt: trifluoroacetate) [Example 56, N-{4-[3-(β-alanylamino)phenyl]-6-(4-chloro-2-hydroxyphenyl)-3-cyanopyridin-2-yl}thiophene-2-carboxamide trifluoroacetate]"
11,161 to 162 °C,"Nc1cccc(-c2cc(NC(=O)c3cccs3)nc(-c3ccccc3O)c2)c1 [Example 25, N-[4-(3-aminophenyl)-6-(2-hydroxyphenyl)pyridin-2-yl]thiophene-2-carboxamide]"
12,259 to 261 °C,"N#Cc1c(-c2cccc(N)c2)cc(-c2ccccc2O)nc1NC(=O)c1ccccc1 [Example 28, N-[4-(3-aminophenyl)-3-cyano-6-(2-hydroxyphenyl)pyridin-2-yl]benzamide]"
13,236 to 238 °C,"N#Cc1c(-c2cccc(N)c2)cc(-c2ccccc2O)nc1NC(=O)C1CCCCC1 [Example 29, N-[4-(3-aminophenyl)-3-cyano-6-(2-hydroxyphenyl)pyridin-2-yl]cyclohexanecarboxamide]"
14,220 to 221 °C,"CC(C)(C)OC(=O)NCCC(=O)Nc1cccc(-c2cc(-c3ccccc3O)nc(NC(=O)c3ccccc3)c2C#N)c1 [Example 30, tert-butyl[3-({3-[2-(benzoylamino)-3-cyano-6-(2-hydroxyphenyl)pyridin-4-yl]phenyl}amino)-3-oxopropyl]carbamate]"
15,259 to 260 °C,"N#Cc1c(-c2cccc(N)c2)cc(-c2ccccc2O)nc1NC(=O)c1ccc(Cl)s1 [Example 32, N-[4-(3-aminophenyl)-3-cyano-6-(2-hydroxyphenyl)pyridin-2-yl]-5-chlorothiophene-2-carboxamide]"
16,257 to 260 °C,"N#Cc1c(-c2cccc(N)c2)cc(-c2ccccc2O)nc1NC(=O)c1ccsc1 [Example 33, N-[4-(3-aminophenyl)-3-cyano-6-(2-hydroxyphenyl)pyridin-2-yl]thiophene-3-carboxamide]"
17,245 to 246 °C,"CCCNC(=O)c1cccc(-c2cc(-c3ccccc3O)nc(NC(=O)c3cccs3)c2C#N)c1 [Example 34, N-(3-cyano-6-(2-hydroxyphenyl)-4-{3-[(propylamino)carbonyl]phenyl}pyridin-2-yl)thiophene-2-carboxamide]"
18,218 to 219 °C,"N#Cc1c(-c2cccc(C(=O)NCCO)c2)cc(-c2ccccc2O)nc1NC(=O)c1cccs1 [Example 35, N-[3-cyano-4-(3-{[(2-hydroxyethyl)amino]carbonyl}phenyl)-6-(2-hydroxyphenyl)pyridin-2-yl]thiophene-2-carboxamide]"
19,253 to 254 °C,"N#Cc1c(-c2cccc(C(=O)N3CCOCC3)c2)cc(-c2ccccc2O)nc1NC(=O)c1cccs1 [Example 36, N-{3-cyano-6-(2-hydroxyphenyl)-4-[3-(morpholin-4-ylcarbonyl)phenyl]pyridin-2-yl}thiophene-2-carboxamide]"
20,230 to 231 °C,"CN(C)c1cccc(-c2cc(-c3ccccc3O)nc(NC(=O)c3cccs3)c2C#N)c1 [Example 38, N-{3-cyano-4-[3-(dimethylamino)phenyl]-6-(2-hydroxyphenyl)pyridin-2-yl}thiophene-2-carboxamide]"
21,227 to 230 °C,"CNc1cccc(-c2cc(-c3ccccc3O)nc(NC(=O)c3cccs3)c2C#N)c1 [Example 39, N-{3-cyano-6-(2-hydroxyphenyl)-4-[3-(methylamino)phenyl]pyridin-2-yl}thiophene-2-carboxamide]"
22,292 to 293 °C,"N#Cc1c(-c2ccc(N)cc2)cc(-c2ccccc2O)nc1NC(=O)c1cccs1 [Example 48, N-[4-(4-aminophenyl)-3-cyano-6-(2-hydroxyphenyl)pyridin-2-yl]thiophene-2-carboxamide]"
23,209 to 210 °C,"CC(=O)NCCC(=O)Nc1cccc(-c2cc(-c3ccc(Cl)cc3O)nc(NC(=O)c3cccs3)c2C#N)c1 [Example 59, N-[4-{3-[(N-acetyl-β-alanyl)amino]phenyl}-6-(4-chloro-2-hydroxyphenyl)-3-cyanopyridin-2-yl]thiophene-2-carboxamide]"
24,162 to 164 °C,"CC(C)(C)OC(=O)c1c(-c2cccc(N)c2)cc(-c2ccccc2O)nc1NC(=O)c1ccccc1 [Example 62, tert-butyl 4-(3-aminophenyl)-2-(benzoylamino)-6-(2-hydroxyphenyl)nicotinate]"
25,247 to 249 °C,"CC(C)(C)OC(=O)c1c(-c2cccc(NC(=O)CCN)c2)cc(-c2ccccc2O)nc1NC(=O)c1ccccc1 [Example 82, tert-butyl 4-[3-(β-alanylamino)phenyl]-2-(benzoylamino)-6-(2-hydroxyphenyl) nicotinate]"
26,277 to 278 °C (dec.),Cl.N#Cc1c(-c2cccc(NC(=O)CC3CCCCN3)c2)cc(-c2ccc(F)cc2O)nc1NC(=O)c1ccco1 (centres unmarked) [Example 290]
